Assay [1] relates to gentamicin-induced nephritis model. Briefly: Therapeutic effect of compounds 1-3 on gentamicin-induced nephritis model (Experimental Example 10). Type of assay: in vivo, male SD rats. Conditions: for Creatinine / B.U.N.: 20 mg/kg; for Creatinine: negative control 1.32 ± 0.12, normal 0.45 ± 0.01; for B.U.N.: negative control 83.0 ± 5.1, normal 12.4 ± 0.6. As to the method:
A normal group was subjected to the tests, where a nephritis-inducing factor, gentamicin (purchased from Whail Pharma. Co., Ltd.) was administered to male SD rats (7 weeks old, 195-205 g, Orient) at a dosage of 240 mg/kg for 6 days through an intraperitioneal injection to induce nephritis. Among the test rats with induced nephritis, the test groups other than the negative control group received the 2 test drugs of Example 2 or the test drug of Example 3.1 or 3.4 orally at a daily dosage of 400 mg/kg. The test rats were autopsied 7 days after the oral administrations. The blood samples collected were analyzed to detect blood urea nitrogen (B.U.N.) and creatinine.
To evaluate the therapeutic effect for nephritis of the three compounds of Experimental Example 9, the procedures were carried out in the same manner of Experimental Example 1 to measure the B.U.N and creatinine contents in the gentamicin-induced nephritis model. Reagents were the compounds 1, 2 and 3, which were the active fractions from the herbal extracts of Cinnamomi Cortex and Prunella Spica.

In assay [2] the test system is croton oil-induced ear edema. Briefly: Mouse ear edema inhibition test (croton oil). Type of assay: in vivo, male ICR mouse. The conditions noted are these: ear swelling thickness 4 hours after 2.5% croton oil, oral 20 mg/kg, 1 hour before. As to the method:
To achieve active fraction and ingredient identification of herbal extracts, an activity-guided sub-fractionation was conducted by way of a mouse ear edema inhibition test. To evaluate the edema inhibitory effects of the MC, EA and BuOH fractions from the herbal extracts of Examples 1.2 and 1.3 and the three compounds identified above, an activity test was conducted according to a method by Hee Kee Kim et al. [Hee Kee Kim et al., Arch. Pharm. Res. 16(1), 1993, 18-24]. The positive control group received Indomethacin (purchased from Sigma) at a dosage of 20 mg/kg. The test group received 200 mg/kg of the MC, EA or BuOH fraction, or 20 mg/kg of the compound 1, 2 or 3. One hour after the oral administration, 2.5% croton oil (purchased from Sigma) was applied to the one ear of a male ICR mouse (7 weeks old, 28-32 g, Orient) to induce an acute inflammation. In 4 hours, the swelling of the ear was measured in terms of thickness.

Setting [3] is: relative to negative control group.

“And” between values parts separate entries of the source, which are not always exact repeats. Equal entries are not always repeated.

For `O=C(O)C=Cc1ccccc1` [Compound 1, Cinnamic acid], in assay [1], the Creatinine was found to be 0.81 ± 0.07 mg/dL and the B.U.N. is 47.7 ± 5.7 mg/dL. Further, in assay [1] (setting [3]), the “effect on blood urea nitrogen (B.U.N.) content” value is given as “showed an effect of reducing the blood urea nitrogen (B.U.N.) content” and the “effect on creatinine content” value was “reduced the creatinine content”. Further, the “% Inhibition” value in assay [2] (20 mg/kg) was 42% and 42.40%.
In assay [1], `O=c1ccc2ccccc2o1` [Compound 2, Coumarin] had a Creatinine of 0.88 ± 0.06 mg/dL and a B.U.N. of 50.9 ± 4.7 mg/dL. The “effect on blood urea nitrogen (B.U.N.) content” value in assay [1] (setting [3]) is “showed an effect of reducing the blood urea nitrogen (B.U.N.) content”. Moreover, the “% Inhibition” value in assay [2] (20 mg/kg) is 39% and 38.79%.
Regarding `O=C(/C=C/c1ccc(O)c(O)c1)O[C@H](Cc1ccc(O)c(O)c1)C(=O)O` [Compound 3, Rosmarinic acid], in assay [1], the Creatinine turned out to be 0.97 ± 0.06 mg/dL and the B.U.N. stood at 63.1 ± 7.2 mg/dL. In addition, the “% Inhibition” value in assay [2] is reported as 28.90%.
As to `COc1ccc2c(c1)c(CC(=O)O)c(C)n2C(=O)c1ccc(Cl)cc1` [Positive Control Group, Indomethacin, reference compound], the “% Inhibition” value is on record as 38.81% in assay [2] (20 mg/kg) and 39% in assay [2] (listed as positive control group, 20 mg/kg).
